Test results taken from the supplement of paper PMC11451515.

Tested on: NOMO1
Assay: cell viability relative to DMSO control; higher = less cytotoxic
Conditions: 48 h
How it was run: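 NOMO1 or SEM cells were plated at 500 cells/well and P12-Ichikawa cells at 1000 cells/well in 1536-well plates (5 μl), after each leukemia line had been adapted for at least four passages in each medium. Pin dosing delivered library compounds in DMSO at 11 threefold concentrations, 47 μM to 0.79 nM. CellTiter-Glo One luminescence was read after 48 h at 37°C. Viability is reported as a per-plate percentage of DMSO wells, with cell-free wells as background.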

[1] = HPLM + 10% dialyzed FBS, 0.000781 µM
[2] = HPLM + 10% dialyzed FBS, 0.00234 µM
[3] = HPLM + 10% dialyzed FBS, 0.00702 µM
[4] = HPLM + 10% dialyzed FBS, 0.0211 µM
[5] = HPLM + 10% dialyzed FBS, 0.0632 µM
[6] = HPLM + 10% dialyzed FBS, 0.19 µM
[7] = HPLM + 10% dialyzed FBS, 0.569 µM
[8] = HPLM + 10% dialyzed FBS, 1.71 µM
[9] = HPLM + 10% dialyzed FBS, 5.12 µM
[10] = HPLM + 10% dialyzed FBS, 15.4 µM
[11] = HPLM + 10% dialyzed FBS, 46.1 µM
[12] = RPMI 5 mM glucose + 10% FBS, 0.000781 µM
[13] = RPMI 5 mM glucose + 10% FBS, 0.00234 µM
[14] = RPMI 5 mM glucose + 10% FBS, 0.00702 µM
[15] = RPMI 5 mM glucose + 10% FBS, 0.0211 µM
[16] = RPMI 5 mM glucose + 10% FBS, 0.0632 µM
[17] = RPMI 5 mM glucose + 10% FBS, 0.19 µM
[18] = RPMI 5 mM glucose + 10% FBS, 0.569 µM
[19] = RPMI 5 mM glucose + 10% FBS, 1.71 µM
[20] = RPMI 5 mM glucose + 10% FBS, 5.12 µM
[21] = RPMI 5 mM glucose + 10% FBS, 15.4 µM
[22] = RPMI 5 mM glucose + 10% FBS, 46.1 µM
[23] = RPMI 5 mM glucose + 10% dialyzed FBS, 0.000781 µM
[24] = RPMI 5 mM glucose + 10% dialyzed FBS, 0.00234 µM
[25] = RPMI 5 mM glucose + 10% dialyzed FBS, 0.00702 µM
[26] = RPMI 5 mM glucose + 10% dialyzed FBS, 0.0211 µM
[27] = RPMI 5 mM glucose + 10% dialyzed FBS, 0.0632 µM
[28] = RPMI 5 mM glucose + 10% dialyzed FBS, 0.19 µM
[29] = RPMI 5 mM glucose + 10% dialyzed FBS, 0.569 µM
[30] = RPMI 5 mM glucose + 10% dialyzed FBS, 1.71 µM
[31] = RPMI 5 mM glucose + 10% dialyzed FBS, 5.12 µM
[32] = RPMI 5 mM glucose + 10% dialyzed FBS, 15.4 µM
[33] = RPMI 5 mM glucose + 10% dialyzed FBS, 46.1 µM

Structure (SMILES)	cell viability [1]	cell viability [2]	cell viability [3]	cell viability [4]	cell viability [5]	cell viability [6]	cell viability [7]	cell viability [8]	cell viability [9]	cell viability [10]	cell viability [11]	cell viability [12]	cell viability [13]	cell viability [14]	cell viability [15]	cell viability [16]	cell viability [17]	cell viability [18]	cell viability [19]	cell viability [20]	cell viability [21]	cell viability [22]	cell viability [23]	cell viability [24]	cell viability [25]	cell viability [26]	cell viability [27]	cell viability [28]	cell viability [29]	cell viability [30]	cell viability [31]	cell viability [32]	cell viability [33]
NC(=O)c1ncn([C@@H]2O[C@H](CO)[C@@H](O)[C@H]2O)n1	116%	134%	110%	117%	112%	103%	88%	69.2%	55.4%	56.8%	29.6%	104%	129%	115%	108%	113%	110%	102%	85.4%	76.7%	74.5%	36.7%	124%	110%	116%	115%	114%	104%	89.4%	69.3%	58.2%	68.2%	48.9%
COC[C@@H](NC(C)=O)C(=O)NCc1ccccc1	112%	119%	117%	132%	116%	118%	114%	117%	107%	105%	86.7%	95.9%	110%	97%	102%	118%	109%	119%	104%	104%	112%	64.8%	106%	117%	116%	114%	125%	115%	125%	124%	131%	118%	69.5%
C=CC1=C(C(=O)O)N2C(=O)[C@@H](NC(=O)/C(=N\O)c3csc(N)n3)[C@H]2SC1	82.9%	110%	119%	102%	123%	109%	129%	129%	110%	113%	118%	104%	119%	124%	118%	117%	127%	116%	120%	125%	134%	138%	98.2%	105%	115%	118%	119%	125%	140%	124%	121%	109%	107%
Cc1cc(Nc2nc(N[C@@H](C)c3ncc(F)cn3)ncc2Cl)n[nH]1	89.6%	95%	113%	124%	113%	113%	109%	63.3%	19.9%	19.5%	28.5%	114%	126%	117%	124%	114%	123%	125%	116%	98.4%	19.5%	15.7%	108%	119%	105%	127%	127%	120%	126%	135%	112%	38.3%	23.8%
Oc1ccc(/C=C/c2cc(O)cc(O)c2)cc1	108%	112%	115%	111%	107%	114%	92.4%	117%	97.5%	50.1%	10.4%	109%	98.8%	111%	105%	98%	102%	99.8%	107%	95.3%	103%	15.1%	89.7%	106%	98.1%	104%	103%	105%	99.2%	97.4%	102%	83.4%	18.4%
OC[C@H]1O[C@H]([C@@H](F)[C@@H]1O)N2\C=C/C(=O)NC2=O	99.1%	106%	106%	97.2%	116%	108%	108%	107%	109%	97.9%	90.2%	85.9%	40.6%	97%	92.9%	99.7%	104%	98.2%	100%	84.8%	94.3%	82.8%	105%	74.5%	97%	102%	102%	99.4%	105%	99.5%	84%	104%	95.2%
O=C1C[C@@H](c2ccc(O)cc2)Oc2cc(O)cc(O)c21	–	–	–	–	–	–	–	–	–	–	–	128%	104%	104%	100%	126%	124%	116%	107%	127%	106%	111%	111%	108%	117%	110%	120%	110%	119%	108%	86.2%	109%	97.9%
C[C@@H]1COCCN1C\2=C\C(=O)N\3CC[C@H](N(CC4=CN=CC(=C4)Cl)C3=N2)C(F)(F)F	90.9%	95.9%	102%	105%	124%	130%	112%	100%	103%	45.4%	29.4%	98%	87.7%	95.1%	93.8%	95.4%	98.5%	92.7%	94.2%	96.9%	57.4%	26%	87.7%	89.9%	91.1%	98.4%	108%	113%	95.1%	89.5%	67.7%	37%	22%
